What was measured:
ADH water channels = assay: Proton permeability (PH+) of F-dextran loaded endocytic vesicles containing ADH water channels, stopped-flow fluorescence after imposed pH gradient; assay type: biochemical, Bufo marinus
Description: Endocytic vesicles from the bladder of Dominican toads were ADH stimulated and loaded with fluoroescein bound to dextran (F-dextran) following the procedures of Harris et.al., "Apical Membrane Vesicles of ADH-Stimulated Toad Bladder Are Highly Water Permeable,"Am. J. Physiol. In Press, (1989); Harris, H. W., et.al., "Fluorescent Markers to Study Membrane Retrieval in Antidiuretic Hormone-Treated Toad Urinary Bladder," Am. J. Physiol., 251:C274-C284 (1986). Briefly, the procedures were as follows.
Dominican toads (Bufo marinus), obtained from National Reagents, Bridgeport, CT, were employed. Urinary bladders of Bufo marinus were prepared and mounted on cannulas as small sacs. After a 20 minute interval of ADH stimulation (50 mU/ml), the apical surfaces of bladders were exposed to solutions containing 50 mg/ml of F-dextran (Av. Mol. Wt. 70,000 Daltons) and […], 30 Mm KCl, and […], pH 8.0, for an interval of 5 minutes followed by termination of ADH stimulation and incubation for an additional 10 minutes. The solution containing the F-dextran was then removed, the bladders rinsed to remove all extracellular F-dextran. The intermediate pellet fraction obtained from centrifugation of the cell was used. F-dextran loaded vesicles were washed repeatedly to remove F-dextran and partially purified by differential centrifugation. In the absence of ADH, no detectable fluorescence was present in this vesicle fraction despite apical membrane exposure to F-dextran.
Standard cuvette fluorescence measurements were performed using an SLM-Aminco 500C spectrofluorimeter (excitation wavelength 499 nm). Stopped-flow measurements were performed in a High Tech stopped-flow device (50 msec dead time) connected to a Photon Technologies Alphascan Fluorimeter. One syringe contained a concentrated vesicle suspension and antifluoroscein antibody while the other contained buffer with sufficient HCl to change the final extravesicular pH as indicated. Data from 3-5 determination performed on a single day were averages. Results were fitted to single exponentials and .tau. was converted to permeability using the following equation: […]
where JH + is the flux rate of protons in mole/sec, PH + is the permeability coefficient of protons in cm/sec, ΔC is the concentration gradient for protons across the vesicle membrane at the start of the experiment in mole/cm^3, and A is the surface area of a single F-dextran containing vesicle (7.1×10^-10 cm^2). See Harris, H. W., et.al., "Isolation and Characterization of Specialized Regions of Toad Urinary Bladder Apical Plasma Membrane Involved in the Water Permeability Response to Antidiuretic Hormone," J. Memb. Biol., 96:175-186 (1987). Jh + was calculated by multiplying 1/.tau. by the amount of buffer (in moles) in an individual vesicle (single vesicle volume was 1.41×10^-14 cm^3). .tau. is the mathematical term representing the time for the process to be 2/3 completed. Estimates of vesicle volume and surface area were calculated from dimensions of vesicles loaded with horseradish peroxides (HRP) instead of F-dextran.
The effect of pCMBS on the rate of pH change in F-dextran loaded vesicles was determined. The materials and procedures of Example 1 were employed, except as noted. […] The results are plotted in FIG. 3. As illustrated, preincubation of vesicles with pCMBS inhibited 54% of oH + in F-dextran loaded vesicles. Control pH + was 3.9±0.5×10^-3 cm/sec (n-5; p<0.005 compared to control; unpaired t test). […]

toad bladder [1] = conditions: NEM pretreatment; cited from earlier work
[2] = test system: human erythroycte membrane; conditions: NEM pretreatment; cited from earlier work
toad bladder [3] = conditions: cited from earlier work

CCN1C(=O)C=CC1=O [NEM, n-ethylmaleimide]
effect on pH + compared to control (significance) (ADH water channels; NEM 2 mM, 1 h pretreatment on ice): NS compared to control
pH + (proton permeability coefficient) after pretreatment (ADH water channels; NEM 2 mM, pretreated 1 h in HEPES buffer on ice, paired control 5.6±0.2×10^-3): 6.2±0.9×10^-3 cm/sec
inhibitory effect on water flux across the toad bladder (toad bladder [1]): no inhibitory effect
inhibitory effect on water flux across human erythrocyte membrane [2]: no inhibitory effect

O=C(CCc1ccc(O)cc1)c1c(O)cc(O)cc1O [Phloretin]
effect on apical membrane vesicle JH + (ADH water channels; phloretin 30 min prior to assay and present during stopped flow): without effect
PH + (proton permeability coefficient) of treated vesicles (ADH water channels; vesicles exposed to phloretin 30 min prior to assay, stopped flow in continued presence, paired studies): 2.6±0.4 ×10^-3 cm/sec
effect on ADH-stimulated urea flux in toad bladder (toad bladder [3]): inhibits

O=S(=O)(O)c1cc[c]([Hg][Cl])cc1 [pCMBS, parachloromercuribenzene sulfonate]
inhibition of oH + (proton permeability) in F-dextran loaded vesicles (ADH water channels; 1 mM pCMBS, one hour preincubation at 4° C., vesicles with 17.6 mM HEPES pH 8.0, extravesicular pH lowered to 6.0): 54%
